Test results: patent publication US20220401481A1, “DOSING REGIMENS FOR THE MOBILIZATION OF HEMATOPOIETIC STEM AND PROGENITOR CELLS” (Magenta Therapeutics, Inc., priority 2019, published 2022)
“And” between values parts separate entries of the source, which are not always exact repeats. Equal entries are not always repeated. Where two headings read alike, the source gives them in different places.

What was measured:
[1] = test system: T cells, B cells and NK cells; details: cited from earlier work
CD34+ cells [2] = details: historical plerixafor alone data, Devine et al., Blood 2008 (n=25); cited from earlier work
CD34+ cells [3] = test: Phase 1 clinical trial: mobilization of CD34+ cells into peripheral blood (multicolor flow cytometry); details: for % ≥40/μL: plerixafor
CD34+CD90+CD45RA− cells = test: Phase 1 clinical trial: mobilization of CD34+CD90+CD45RA− cells into peripheral blood (flow cytometry); details: plerixafor alone
[4] = test system: hematopoietic stem and progenitor cell mobilization; details: described in U.S. Pat. No. 6,447,766; cited from earlier work
[5] = Chen et al., 2019, plerixafor N = 50+, median yield of 2 LP
[6] = Devine et al, 2008, median yield of 1 LP, plerixafor N = 24, G-CSF N = 8
[7] = Part C, first day, combination (0.03 or […]) 8 patients, plerixafor alone
[8] = Part C, placebo + plerixafor on Day 2 (n=2)

c1cc(CN2CCCNCCNCCCNCC2)ccc1CN1CCCNCCNCCCNCC1 [Plerixafor, 1,1′-[1,4-phenylenebis(methylene)]-bis-1,4,8,11-tetra-azacyclotetradecane]
CD3+ in graft, Median (range) [1, 5]: 6.0 (2.7-13.0) ×10^8/kg | CD4+ in graft, Median (range) [1, 5]: 3.6 (2.0-9.4) ×10^8/kg | CD8+ in graft, Median (range) [1, 5]: 2.2 (0.5-5.0) ×10^8/kg | CD19+ in graft, Median (range) [1, 5]: 1.5 (0.2-7.4) ×10^8/kg | CD34+ in graft, Median (range) [1, 5]: 4.7 (0.9-9.6) ×10^6/kg | CD56+ in graft, Median (range) [1, 5]: 0.4 (0.0-1.1) ×10^8/kg | CD3+ in graft, Median (range) [1, 6]: 4.6 (1.5-7.8) ×10^8/kg | CD4+ in graft, Median (range) [1, 6]: 3.2 (1-5.7) ×10^8/kg | CD8+ in graft, Median (range) [1, 6]: 1.3 (0.4-3.4) ×10^8/kg | CD34+ in graft, Median (range) [1, 6]: 2.9 (1.2-6.3) ×10^6/kg | CD56+ in graft, Median (range) [1, 6]: 0.3 (0.1-1.0) ×10^8/kg | CD19+ in graft, Median (range) ([1]; Devine et al, 2008, median yield of 1 LP, plerixafor N = 24): 1.0 (0.2-2.4) ×10^8/kg | Patients with peak CD34+ ≥20 cells/μL (CD34+ cells [2]): 28% | Patients with peak CD34+ ≥40 cells/μL (CD34+ cells [2]): 4% | CD34+ AUC2-8h Median (range) (CD34+ cells [3]; 2-8 hours post plerixafor dose, plerixafor alone): 102 (61-341) | % ≥40/μL (CD34+ cells [3]; Part B): 21% (3/16) | Peak CD34+ (#/μL) Median (range) (CD34+ cells [3]; Part B, plerixafor (placebo + plerixafor) on Day 1): 26 (13-78) #/μL | Number of patients with peak CD34+ count of at least 20 cells per microliter (CD34+ cells [3]; [7]): none | Number of patients with peak CD34+ count of at least 40 cells per microliter (CD34+ cells [3]; [7]): none | Peak CD34+ (#/μL) Median (range) (CD34+ cells [3]; [8]): 17 (12-22) #/μL | Percent ≥20/μL (CD34+ cells [3]; [8]): 50 (1/2) % | Peak CD34+ (#/μL) Median (range) (CD34+ cells [3]; Part C, plerixafor (placebo + plerixafor) on Day 1 (n=2)): 18 (16-20) #/μL | % ≥40/μL (CD34+ cells [3]; Part C, first day (n=2)): 0% (0/2) | % ≥40/μL (CD34+ cells [3]; Pooled B + C): 14% (2/14) | Peak CD34+ (#/μL) Median (range) (CD34+ cells [3]; Pooled B + C, plerixafor (placebo + plerixafor) on Day 1): 20 (13-78) #/μL and 23 (13-78) #/μL | Peak CD34+/μL (FC vs. baseline) Median (range) (CD34+ cells [3]; plerixafor alone): 15 (8-62) fold | Tmax of peak CD34+ level Median (range) (CD34+ cells [3]; plerixafor alone): 8 (3-12) h | Patients with peak CD34+ ≥20 cells/μL (CD34+ cells [3]; plerixafor alone (n=14)): 50% | Patients with peak CD34+ ≥40 cells/μL (CD34+ cells [3]; plerixafor alone (n=14)): 14% | CD34+CD90+CD45RA− cells, median peak (CD34+CD90+CD45RA− cells): 8 cells/μL

Gro-β T N65D: Gro-β T with aspartic acid in place of asparagine at position 65, SEQ ID NO: 4 [reference compound]
Potency (hematopoietic stem and progenitor cell mobilization) relative to Gro-β T [4]: substantially greater than that of Gro-β T
